Values of other authors in US20030045478A1, “Gamma-ketoacid dipeptide derivatives as inhibitors of caspase-3” (priority 2000, published 2003).

Experiments:
caspase-1 = biological target: T1, caspase-1 (Homo sapiens, UniProt P29466)
T1 sequence (P29466 120-297 limits assumed): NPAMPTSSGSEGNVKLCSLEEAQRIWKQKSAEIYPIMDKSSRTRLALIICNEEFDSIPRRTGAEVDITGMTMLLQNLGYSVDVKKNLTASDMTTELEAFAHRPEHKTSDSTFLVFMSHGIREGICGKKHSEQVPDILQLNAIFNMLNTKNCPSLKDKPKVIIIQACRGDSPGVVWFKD
T1 sequence (P29466 317-404 limits assumed): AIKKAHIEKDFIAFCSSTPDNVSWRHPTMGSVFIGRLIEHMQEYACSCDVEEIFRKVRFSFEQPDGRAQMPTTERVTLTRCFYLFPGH

caspase-3 = biological target: T2, caspase-3 (Homo sapiens, UniProt P42574)
T2 sequence (P42574 29-175 limits assumed): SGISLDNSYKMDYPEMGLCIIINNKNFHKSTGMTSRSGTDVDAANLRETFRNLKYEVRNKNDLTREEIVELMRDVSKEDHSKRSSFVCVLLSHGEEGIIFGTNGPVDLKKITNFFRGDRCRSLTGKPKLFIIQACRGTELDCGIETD
T2 sequence (P42574 176-277 limits assumed): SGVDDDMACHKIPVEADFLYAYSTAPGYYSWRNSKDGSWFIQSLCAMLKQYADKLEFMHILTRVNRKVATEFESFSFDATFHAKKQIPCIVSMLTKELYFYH

For Ac-YVAD-CHO, the Ki (caspase-1) is given as < 0.001 µM and the Ki (caspase-3) is given as 12 µM.
